According to ChEMBL document CHEMBL3769318, “The Rational Design of Selective Benzoxazepin Inhibitors of the α-Isoform of Phosphoinositide 3-Kinase Culminating in the Identification of (S)-2-((2-(1-Isopropyl-1H-1,2,4-triazol-5-yl)-5,6-dihydrobenzo[f]imidazo[1,2-d][1,4]oxazepin-9-yl)oxy)propanamide (GDC-0326)” (J Med Chem, 2016):

Columns and labels:
[1] = Antiproliferative activity against human MCF7-neo/Her2 cells after 3 days by luminescence plate reader method; format: functional, cell-based; settings: 72 h
[2] = Antiproliferative activity against human PC3 cells after 4 days by luminescence plate reader method; format: functional, cell-based; settings: PC-3, 96 h
[3] = target: Phosphatidylinositol 4,5-bisphosphate 3-kinase catalytic subunit alpha isoform (Homo sapiens, UniProt P42336); test: Inhibition of recombinant PI3K alpha (unknown origin) using PIP2 as substrate by fluorescence polarization assay; settings: read-out: Ki(app)
Chain of Phosphatidylinositol 4,5-bisphosphate 3-kinase catalytic subunit alpha isoform (P42336 whole entry, canonical isoform): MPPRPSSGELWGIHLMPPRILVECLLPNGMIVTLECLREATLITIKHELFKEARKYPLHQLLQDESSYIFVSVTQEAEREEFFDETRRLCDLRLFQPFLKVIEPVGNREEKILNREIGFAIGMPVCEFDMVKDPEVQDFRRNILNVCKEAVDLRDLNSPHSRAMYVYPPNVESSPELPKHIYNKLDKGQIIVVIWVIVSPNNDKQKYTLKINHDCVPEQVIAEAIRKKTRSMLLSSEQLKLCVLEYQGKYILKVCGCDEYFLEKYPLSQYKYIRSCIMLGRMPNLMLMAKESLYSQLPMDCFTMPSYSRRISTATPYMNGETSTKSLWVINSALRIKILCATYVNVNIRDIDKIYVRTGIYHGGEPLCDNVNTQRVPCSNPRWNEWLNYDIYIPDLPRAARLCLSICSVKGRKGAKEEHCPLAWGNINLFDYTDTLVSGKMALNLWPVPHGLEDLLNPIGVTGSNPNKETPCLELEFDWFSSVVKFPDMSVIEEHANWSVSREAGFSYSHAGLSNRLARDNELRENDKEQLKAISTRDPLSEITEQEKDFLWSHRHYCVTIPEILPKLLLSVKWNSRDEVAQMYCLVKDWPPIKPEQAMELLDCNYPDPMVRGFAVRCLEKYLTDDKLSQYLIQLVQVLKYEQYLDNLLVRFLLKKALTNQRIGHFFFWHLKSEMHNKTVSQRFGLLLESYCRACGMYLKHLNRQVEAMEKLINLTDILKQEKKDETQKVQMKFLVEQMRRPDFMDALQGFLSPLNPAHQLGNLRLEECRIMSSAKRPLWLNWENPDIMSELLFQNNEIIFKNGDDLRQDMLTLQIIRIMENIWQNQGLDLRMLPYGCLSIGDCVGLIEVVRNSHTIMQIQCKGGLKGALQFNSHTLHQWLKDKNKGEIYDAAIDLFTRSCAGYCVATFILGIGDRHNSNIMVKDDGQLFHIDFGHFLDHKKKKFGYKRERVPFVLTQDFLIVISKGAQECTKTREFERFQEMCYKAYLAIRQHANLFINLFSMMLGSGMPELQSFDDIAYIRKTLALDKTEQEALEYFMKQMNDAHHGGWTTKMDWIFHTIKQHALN

[4] = Clearance in Sprague-Dawley rat at 1 mg/kg, iv; format: ADME, organism-based; settings: in vivo

| SMILES | EC50 [1] | EC50 [2] | Ki [3] | clearance [4] |
| --- | --- | --- | --- | --- |
| CC(C)n1ncnc1-c1cn2c(n1)-c1ccc(N3CC[C@H]3C(N)=O)cc1OCC2 | 50 nM | 230 nM | 0.1 nM |  |
| CC(C)n1ncnc1-c1cn2c(n1)-c1ccc(N3CCC[C@H]3C(N)=O)cc1OCC2 | 10 nM | 150 nM | 0.03 nM | 33 mL/min/kg |
